# System: MDA-MB-231-Luc highly metastatic human breast cancer cells
# Assay: in vivo metastasis mouse model, disease free survival
# Set-up: species or system Nude mice
# Settings: 3.5 mg/Kg once daily for 10 days; MDA-MB-231-Luc i.v.; monitored up to 49 days
# Protocol: Nude mice are injected i.v. with 200,000 highly metastatic human breast cancer cells expressing luciferase (MDA-MB-231-Luc) then are given a compound of Formula (I) or Formula (Ia) once daily for about 10 days and are monitored for tumours by total body scan using Xenogen-IVIS. Mice with a luciferase signal above background in repeated scans in any part of their torso are scored as having metastatic disease. Total light emission in the abdominal region is quantified at time points up to 49 days post surgery and plotted as mean total light yield.
# Nude mice were injected i.v. with 200,000 highly metastatic human breast cancer cells expressing luciferase (MDA-MB-231-Luc) then given 3.5 mg/Kg of compound 12, reference compound A, or Reference compound B once daily for 10 days and monitored for tumours by total body scan using Xenogen-IVIS. Mice with a luciferase signal above background in repeated scans in any part of their torso were scored as having metastatic disease. Total light emission in abdominal region was quantified at time points up to 49 days post surgery and plotted as mean total light yield. Control n=12, Reference compound A n=10, Reference compound B n=4; compound 12 n=4.
row,Structure (SMILES),disease free survival [%]
1,O=C(Nc1ccccc1C(=O)NCCN1CCOCC1)c1ccccc1F [Reference compound A],70
2,COc1ccc(C(=O)Nc2ccccc2C(=O)NCCN2CCOCC2)cc1 [Reference compound B],50

# System: human breast cancer MDA-MB-231 xenograft
# Assay: in vivo metastasis mouse Model 1 (seeding and early colonization of circulating tumour cells)
# Set-up: species or system mice
# Settings: 3.5 mg/Kg intraperitoneal daily for 10 days; relative luminescence of thoracic region
# Protocol: In all experiments, each compound was administered by intraperitoneally at 3.5 mg/kg.
# (§1) One model (Model 1) studied the effect of the compound's ability to inhibit the seeding and early colonization of circulating tumour cells at distal sites, most commonly in the lungs and liver. Human tumour cell lines were injected into the bloodstream of recipient mice, followed by single daily intraperitoneal injections of the compound (3.5 mg/kg in 1% DMSO) for 10 consecutive days. Tumour burden was monitored longitudinally for up to 8 weeks in vivo by live luminescence imaging, and subsequently histology performed on affected organs at the end of the experiment.
# as §1, with “Model 1 tested” for “One model (Model 1) studied”, “Bcl3i compounds” for “the compound's ability”, “Bcl3 inhibitor” for “the compound”
# The X axis represents the number of days after xenograft and the Y axis is the relative luminescence of the thoracic region by Xenon IVIS scanning of mice following injection of d-luciferin for 10 minutes.
# MDA-MB-231 human breast cancer cells were used in each of the three xenograft models of metastatic breast cancer.
row,Structure (SMILES),potency of effect in Model 1 relative to compound 28
1,"CN1CCN(CCNC(=O)c2ccccc2NC(=O)c2ccccc2F)CC1 [Compound 49, 2-fluoro-N-(2-((2-(4-methylpiperazin-1-yl)ethyl)carbamoyl)phenyl)benzamide]",more potent effects than compound 28

# Same assay, conditions: 3.5 mg/Kg intraperitoneal daily for 10 days; relative luminescence of thoracic region; versus controls and compound 12
row,Structure (SMILES),inhibition of metastasis / tumour burden in Model 1
1,COc1ccc(C(=O)Nc2cccc(F)c2C(=O)NCCN2CCOCC2)c(F)c1 [Compound 28],significant reduction in tumour burden compared to controls but reduced effect compared to compound 12
2,"CN1CCN(CCNC(=O)c2ccccc2NC(=O)c2ccccc2F)CC1 [Compound 49, 2-fluoro-N-(2-((2-(4-methylpiperazin-1-yl)ethyl)carbamoyl)phenyl)benzamide]",equivalent inhibition of metastasis in vivo to compound 12

# System: not given
# Assay: not given
# Settings: not given
row,Structure (SMILES),melting point [°C]
1,"COc1cccc(C(=O)NCCc2ccccc2)c1NC(=O)c1ccccc1F [Compound 84, 2-(2-fluorobenzamido)-3-methoxy-N-phenethylbenzamide]",130 to 132
2,"COc1cccc(C(=O)NCCc2ccccc2)c1NC(=O)c1cccc(F)c1 [Compound 85, 2-(3-fluorobenzamido)-3-methoxy-N-phenethylbenzamide]",99 to 101
3,"COc1cccc(C(=O)NCCc2ccccc2)c1NC(=O)c1ccc(F)cc1 [Compound 86, 2-(4-fluorobenzamido)-3-methoxy-N-phenethylbenzamide]",140 to 142
4,"COc1cccc(C(=O)Nc2c(OC)cccc2C(=O)NCCc2ccccc2)c1 [Compound 91, 3-methoxy-2-(3-methoxybenzamido)-N-phenethylbenzamide]",100 to 102
5,"COc1ccc(C(=O)Nc2c(OC)cccc2C(=O)NCCc2ccccc2)c(OC)c1 [Compound 93, 2-(2,4-dimethoxybenzamido)-3-methoxy-N-phenethylbenzamide]",132 to 134
6,"O=C(Nc1ccccc1C(=O)NCCCc1ccccc1)c1ccccc1F [Compound 95, 2-fluoro-N-(2-((3-phenylpropyl)carbamoyl)phenyl)benzamide]",61 to 63
7,"COc1ccc(C(=O)Nc2ccccc2C(=O)NCCCc2ccccc2)cc1 [Compound 96, 2-(4-methoxybenzamido)-N-(3-phenylpropyl)benzamide]",93 to 94
8,"O=C(NCCCc1ccccc1)c1ccccc1NC(=O)c1cccc2ccccc12 [Compound 97, N-(2-((3-phenylpropyl)carbamoyl)phenyl)-1-naphthamide]",98 to 100
9,"O=C(Nc1ncccc1C(=O)O)c1ccccc1F [Compound 105, 2-(2-fluorobenzamido)nicotinic acid]",> 90
10,"COc1cccc(C(=O)NCCc2ccccc2)c1NC(=O)c1ccc2ccccc2c1 [Compound 119, N-(2-methoxy-6-(phenethylcarbamoyl)phenyl)-2-naphthamide]",188 to 190
11,"COc1cccc(C(=O)NCCCc2ccccc2)c1NC(=O)c1ccc2ccccc2c1 [Compound 120, N-(2-methoxy-6-((3-phenylpropyl)carbamoyl)phenyl)-2-naphthamide]",152 to 154
12,"COc1cc(C(=O)NCCCc2ccccc2)c(NC(=O)c2ccccc2F)c(OC)c1OC [Compound 124, 2-(2-fluorobenzamido)-3,4,5-trimethoxy-N-(3-phenylpropyl)benzamide]",145 to 147
13,"COc1cccc(C(=O)NCCCc2ccccc2)c1NC(=O)c1cccc2ccccc12 [Compound 125, N-(2-methoxy-6-((3-phenylpropyl)carbamoyl)phenyl)-1-naphthamide]",150 to 152
14,"COc1cc(C(=O)NCCCN2CCOCC2)c(NC(=O)c2cccnc2)c(OC)c1OC [Compound 132, N-(2,3,4-trimethoxy-6-((3-morpholinopropyl)carbamoyl)phenyl) nicotinamide]",120 to 122

# Results, then the molecule that gave them:
row,melting point [°C],Structure (SMILES)
1,105 to 107,COc1ccc(C(=O)Nc2cccc(F)c2C(=O)NCCN2CCOCC2)c(F)c1 [Compound 28]
2,116,"CN1CCN(CCNC(=O)c2ccccc2NC(=O)c2ccccc2F)CC1 [Compound 49, 2-fluoro-N-(2-((2-(4-methylpiperazin-1-yl)ethyl)carbamoyl)phenyl)benzamide]"
3,94,"O=C(Nc1ccccc1C(=O)NCCc1ccccc1)c1cccnc1 [Compound 94, N-(2-(phenethylcarbamoyl)phenyl)nicotinamide]"
4,99 to 101,"O=C(Nc1ccccc1C(=O)NCCCc1ccccc1)c1ccc2ccccc2c1 [Compound 98, N-(2-((3-phenylpropyl)carbamoyl)phenyl)-2-naphthamide]"
5,113 to 115,"COc1cccc(C(=O)Nc2ccccc2C(=O)NCCN2CCN(C)CC2)c1 [Compound 101, 2-(3-methoxybenzamido)-N-(2-(4-methylpiperazin-1-yl)ethyl)benzamide]"
6,59 to 61,"O=C(Nc1ccccc1C(=O)NCCN1CCNCC1)c1cccc(Cl)c1 [Compound 102, 2-(3-chlorobenzamido)-N-(2-(piperazin-1-yl)ethyl)benzamide]"
7,89 to 91,"CN1CCN(CCNC(=O)c2ccccc2NC(=O)c2ccc(F)cc2)CC1 [Compound 107, 2-(4-fluorobenzamido)-N-(2-(4-methylpiperazin-1-yl)ethyl)benzamide]"
8,68 to 71,CN1CCN(CCNC(=O)c2ccccc2NC(=O)c2ccc(C(F)(F)F)cc2)CC1 [Compound 108]
9,81 to 83,"COc1ccc(C(=O)Nc2cccc(F)c2C(=O)NCCN2CCN(C)CC2)cc1 [Compound 109, 2-fluoro-6-(4-methoxybenzamido)-N-(2-(4-methylpiperazin-1-yl)ethyl)benzamide]"
10,108 to 110,"COc1cccc(C(=O)Nc2cccc(F)c2C(=O)NCCN2CCN(C)CC2)c1 [Compound 110, 2-fluoro-6-(3-methoxybenzamido)-N-(2-(4-methylpiperazin-1-yl)ethyl)benzamide]"
11,105 to 107,"COc1ccc(C(=O)Nc2ccncc2C(=O)NCCN2CCOCC2)cc1 [Compound 113, 4-(4-methoxybenzamido)-N-(2-morpholinoethyl)nicotinamide]"
12,101 to 103,"CN1CCN(CCNC(=O)c2ccccc2NC(=O)c2cccc(C(F)(F)F)c2)CC1 [Compound 114, N-(2-(4-methylpiperazin-1-yl)ethyl)-2-(3-(trifluoromethyl)benzamido) benzamide]"
13,69 to 71,"CN1CCN(CCNC(=O)c2ccccc2NC(=O)c2ccc(OC(F)(F)F)cc2F)CC1 [Compound 115, 2-fluoro-N-(2-((2-(4-methylpiperazin-1-yl)ethyl)carbamoyl)phenyl)-4-(trifluoromethoxy)benzamide]"
14,83 to 85,"COc1ccc(C(=O)Nc2ccncc2C(=O)NCCN2CCN(C)CC2)cc1 [Compound 116, 4-(4-methoxybenzamido)-N-(2-(4-methylpiperazin-1-yl)ethyl)nicotinamide]"
15,124 to 126,CN1CCN(CCNC(=O)c2ccccc2NC(=O)c2ccccc2C(F)(F)F)CC1 [Compound 117]
16,140 to 142,"COc1cccc(C(=O)NCCCN2CCOCC2)c1NC(=O)c1ccc2ccccc2c1 [Compound 121, N-(2-methoxy-6-(3-morpholinopropylcarbamoyl)phenyl)-2-naphthamide]"
17,105 to 107,"COc1cccc(C(=O)NCCN2CCOCC2)c1NC(=O)c1ccccc1F [Compound 145, 2-(2-fluorobenzamido)-3-methoxy-N-(2-morpholinoethyl)benzamide]"
18,147 to 149,"O=C(Nc1ccccc1C(=O)NCCN1CCOCC1)c1cccc([N+](=O)[O-])c1 [Compound 146, N-(2-morpholinoethyl)-2-(3-nitrobenzamido)benzamide]"
19,138 to 140,"O=C(NCCN1CCOCC1)c1ccccc1NC(=O)c1ccccc1[N+](=O)[O-] [Compound 147, N-(2-morpholinoethyl)-2-(2-nitrobenzamido)benzamide]"
20,147 to 149,"O=C(Nc1ccccc1C(=O)NCCN1CCOCC1)c1ccc([N+](=O)[O-])cc1 [Compound 148, N-(2-morpholinoethyl)-2-(4-nitrobenzamido)benzamide]"

# — US10273218B2, “BCL-3 inhibitors” (University College Cardiff Consultants Limited, priority 2014, dated 2019)
